Assay results taken from PMC9316063, “Chalcones as Anti-Glioblastoma Stem Cell Agent Alone or as Nanoparticle Formulation Using Carbon Dots as Nanocarrier” (Pharmaceutics, 2022).
“And” between values parts separate entries of the source, which are not always exact repeats. Equal entries are not always repeated. Where two headings read alike, the source gives them in different places.

How the values were obtained:
Type in all cases: cell-based, human
[1] = test system: GSC lines Glio3, Glio9 and Glio38; assay: MTS cell viability assay, all three GSC lines together; conditions: for activity against GSCs: at the concentrations tested; for IC50: 72 h
Excerpt: (§1) The generation and characterization of our GSC lines (Glio3, Glio9, Glio38) have been previously described. In brief, following patient consent, the resected tumors were mechanically and enzymatically dissociated, and red blood cells were removed using Red Cell Lysis buffer (SigmaAldrich, St. Louis, MO, USA). Cells were filtered and plated in a 3:1 ratio of Dulbecco’s Modified Eagle’s medium (DMEM): F12 (Gibco, Carlsbad, CA, USA) media supplemented with 1% penicillin and streptomcycin (penn/strep), 20 ng/mL each of human epidermal growth factor and human fibroblast growth factor, and 2% Gem21 NeuroPlex Serum-Free Supplement (Gemini Bioscience, Sacramento, CA, USA); a formulation consistent for the generation of GBM stem cell lines. Both Glio3 and Glio38 were derived from tumors prior to drug or radiation therapy and grow as neurospheres, whereas Glio9 was derived from a recurrent tumor, following chemo and radiotherapy, and grows adherent. The GBM cell line U87 MG (U87), purchased from ATCC (Manassas, VA, USA) and the pediatric GBM cell line SJ-GBM2 was obtained from Children’s Oncology Group. SJ-GBM2 cell line was derived from a child with glioblastoma post therapy and is used as part of a National Cancer Institute pediatric pre-clinical testing program. Both lines were maintained in RPMI media supplemented with 10% FBS and 1% penn/strep. Mesenchymal stem cells (MSCs) originally derived from human bone marrow aspirates were obtained from Thermo Fisher Scientific and maintained in MEM alpha supplemented with 20% FBS and 1% penn/strep. Prior to drug treatment, MSCs were moved to media with 10% FBS. Upon receipt U87, SJ-GBM2 and MSCs were immediately expanded with several aliquots frozen down for future use. These cell lines are not listed on the most recent NCBI database for misidentification and contamination of human cell lines. All cell lines were routinely tested for mycoplasma using LookOut mycoplasma PCR detection kit (Sigma-Aldrich, St. Louis, MO, USA) according to the manufacturer’s instructions and were maintained at 37 °C in a humidified 5% CO2 incubator.
(§2) The chalcones were dissolved in dimethyl sulfoxide (DMSO) at a concentration of 10 mM, vortexed and subsequently diluted to obtain 1 mM and 0.1 mM stock concentrations. C-dot-trans-chalcones were resuspended in supplement-free media (3:1 ratio DMEM/F12 for GSC experiments or RPMI for non-stem cell line experiments). Cell viability in response to drug treatment was determined using CellTiter 96 AQueous One Solution Cell Proliferation Assay, a colorimetric MTS assay kit (Promega, Madison, WI, USA). The GSCs were seeded into 96-well plates using modified neurosphere media containing 5% FBS at a density of 10,000 cells per well. MSCs and U87 cells were plated at 5000 cells/well while SJ-GBM2 cells were plated at 10,000 cells/well. The next day cells were treated with increasing concentrations of chalcones or C-dot-chalcone conjugate. Next, 72 h later, media was aspirated and 100 μL of a 1:5 solution of MTS to cell culture media was added to each well and incubated for 1–4 h. Optical density was measured at 490 nm using BioTek Synergy HT plate reader. Viability of drug treated cells is expressed as the percent viable cells relative to non-treated cells (100% viability). Experiments were done in triplicate.

Glio9 = assay: MTS cell viability assay, GSC line Glio9; conditions: 72 h, read-out: Glio9 IC50
Excerpt: as §1, §2

Glio3 [2] = assay: MTS cell viability assay, GSC line Glio3; conditions: 72 h, read-out: Glio3 IC50
Excerpt: as §1, §2

Glio38 [3] = assay: MTS cell viability assay, GSC line Glio38; conditions: 72 h, read-out: Glio38 IC50
Excerpt: as §1, §2

[4] = test system: mesenchymal stem cells (MSC); assay: MTS cell viability assay, mesenchymal stem cells; conditions: 72 h, estimated, >>10 indicates no cell death observed at any of the concentrations tested
Excerpt: as §1, §2

U87 = assay: MTS cell viability assay, U87; conditions: 72 h
Excerpt: The generation and characterization of our GSC lines (Glio3, Glio9, Glio38) have been previously described. In brief, following patient consent, the resected tumors were mechanically and enzymatically dissociated, and red blood cells were removed using Red Cell Lysis buffer (SigmaAldrich, St. Louis, MO, USA). Cells were filtered and plated in a 3:1 ratio of Dulbecco’s Modified Eagle’s medium (DMEM): F12 (Gibco, Carlsbad, CA, USA) media supplemented with 1% penicillin and streptomcycin (penn/strep), 20 ng/mL each of human epidermal growth factor and human fibroblast growth factor, and 2% Gem21 NeuroPlex Serum-Free Supplement (Gemini Bioscience, Sacramento, CA, USA); a formulation consistent for the generation of GBM stem cell lines. […]
The chalcones were dissolved in dimethyl sulfoxide (DMSO) at a concentration of 10 mM, vortexed and subsequently diluted to obtain 1 mM and 0.1 mM stock concentrations. […] Cell viability in response to drug treatment was determined using CellTiter 96 AQueous One Solution Cell Proliferation Assay, a colorimetric MTS assay kit (Promega, Madison, WI, USA). […] Optical density was measured at 490 nm using BioTek Synergy HT plate reader. Viability of drug treated cells is expressed as the percent viable cells relative to non-treated cells (100% viability). […]

Glio3 [5] = assay: Sphere forming assay, Glio3; conditions: 100 nM alone, vs non-treated controls
Experimental: (§3) The effect of chalcones’ clonogenic growth potential was determined using sphere-forming assays. Glio3 and Glio38 neurosphere cell lines were dissociated using Accutase (Gemini Bioscience, Sacramento, CA, USA), filtered using 40-micron filter and single cells were seeded at approximately 50 cells per well in a 96-well plate. Cells were treated with 0.1, 0.25 or 0.5 μM of chalcone or 0.01, 0.05 or 0.1 μM of C-dot chalcone conjugate on day 0 and spheres were manually counted under microscopy on day 14. All experiments were done in triplicate. Representative images were obtained using EVOS XL Core light microscope (Thermo Fisher Scientific, Waltham, MA, USA).

Glio38 [6] = assay: Sphere forming assay, Glio38; conditions: 100 nM alone, vs non-treated controls
Experimental: as §3

[7] = Homo sapiens, Mesenchymal stem cells
[8] = average of Glio3, Glio9, Glio38, read-out: average IC50 across the 3 GSC lines
[9] = Homo sapiens, in all three GSC lines, read-out: IC50 in all GSC lines (bound stated in text)
[10] = Homo sapiens, average of Glio3, Glio9, Glio38, read-out: average IC50 across the 3 GSC lines

| Compound | activity against GSCs [1] | IC50 (Glio9; Homo sapiens, MTS, ±SEM) | IC50 (Glio3 [2]; Homo sapiens, MTS, ±SEM) | IC50 (Glio38 [3]; Homo sapiens, MTS, ±SEM) | IC50 [4, 7] | IC50 [1, 9] | other results |
| --- | --- | --- | --- | --- | --- | --- | --- |
| COc1cc(/C=C/C(=O)c2ccc(N)cc2)cc(OC)c1O [Chalcone 3k] | not active at concentrations tested | > 10 µM | > 10 µM | > 10 µM |  |  | activity against GSCs ([1]; listed as 4k): eliminates activity |
| COc1cc(/C=C/C(=O)c2cccc(N)c2)cc(OC)c1OC [Chalcone 5a, 3′-Amino-3,4,5-trimethoxychalcone] |  | 5.1 ± 0.6 µM | 8 ± 1.5 µM | 5 ± 0.8 µM | 5.5 µM |  |  |
| 3,4,5-trimethoxy chalcone [Chalcone 3e] |  |  |  |  |  |  | IC50 [1, 8]: < 10 µM and 9.7 µM; IC50 ([1]; in all three GSC lines, read-out: IC50 in all GSC lines (bound stated in text)): < 15 µM; IC50 (Glio9; MTS, ±SEM): 8.9 ± 1.6 µM; IC50 (Glio3 [2]; MTS, ±SEM): 10.9 ± 0.8 µM; IC50 [4]: 46.7 µM; IC50 ([4]; listed as 4′-amino-trimethoxy chalcone): ~50 µM; IC50 (Glio38 [3]; MTS, ±SEM): 9.2 ± 0.8 µM |
| Nc1ccc(C(=O)/C=C/c2ccoc2)cc1 [Chalcone 3s] |  | > 10 µM | > 10 µM | > 10 µM |  |  |  |
| CCOc1cc(C=CC(=O)c2ccc(N)cc2)ccc1O [Chalcone 3j] | not active at concentrations tested | > 10 µM | > 10 µM | > 10 µM |  |  |  |
| COc1cc(/C=C/C(=O)c2ccc(OC(C)=O)cc2)cc(OC)c1OC [Chalcone 4d] |  | 6.2 ± 0.9 µM | 7.7 ± 0.4 µM | 6.9 ± 0.3 µM | > 10 µM | < 10 µM |  |
| COc1ccc(OC)c(/C=C/C(=O)c2ccc(N)cc2)c1 [Chalcone 3c] |  | 9.3 ± 0.6 µM | 12 ± 1.8 µM | 10.4 ± 2 µM | > 10 µM | < 15 µM |  |
| Nc1ccc(C(=O)/C=C/c2ccccn2)cc1 [Chalcone 3q] |  |  |  |  |  |  | IC50 [1, 8]: 7.2 ± 0.5 µM; IC50 (Glio9; MTS, ±SEM): 6.6 ± 0.5 µM; IC50 (Glio3 [2]; MTS, ±SEM): 8.3 ± 0.7 µM; IC50 [4]: > 10 µM; IC50 (Glio38 [3]; MTS, ±SEM): 6.6 ± 0.7 µM |
| Nc1ccc(C(=O)C=Cc2ccc(N3CCOCC3)cc2)cc1 [Chalcone 3m] | neither the morpholino or the methoxymethoxy derivatives were active against GSCs | > 10 µM | > 10 µM | > 10 µM |  |  |  |
| COc1cc(/C=C/C(=O)c2ccc(OCC(=O)O)cc2)cc(OC)c1OC [Chalcone 4f] | active | > 10 µM | > 10 µM | > 10 µM |  |  |  |
| COc1ccc(/C=C/C(=O)c2ccc(N)cc2)cc1OC [Chalcone 3b] |  | > 10 µM | > 10 µM | > 10 µM |  |  |  |
| COc1cc(/C=C/C(=O)c2ccc(N)cc2)ccc1O [Chalcone 3l] |  | > 10 µM | > 10 µM | > 10 µM |  |  |  |
| Nc1ccc(C(=O)/C=C/c2ccco2)cc1 [Chalcone 3r] |  | > 10 µM | > 10 µM | > 10 µM |  |  |  |
| Nc1ccc(C(=O)/C=C/c2ccccn2)cc1 [Chalcone 3p] |  | 5.2 ± 0.5 µM | 6.6 ± 1.2 µM | 6.4 ± 2 µM | 8 µM | < 10 µM | IC50 [1, 10]: 6.1 ± 0.4 µM |
| COC(=O)COc1ccc(C(=O)/C=C/c2cc(OC)c(OC)c(OC)c2)cc1 [Chalcone 4e] | active | 7 ± 1.3 µM | 10.4 ± 1.4 µM | 18.4 µM |  |  |  |
| 3,5-dimethoxy chalcone [Chalcone 3f] |  |  |  |  |  |  | IC50 [1, 8]: 8.2 ± 0.8 µM; IC50 (Glio9; MTS, ±SEM): 9.7 ± 2 µM; IC50 (Glio3 [2]; MTS, ±SEM): 7.8 ± 0.9 µM; IC50 (U87): 8.5 ± 0.04 µM; IC50 [4]: 74.8 µM; IC50 (Glio38 [3]; MTS, ±SEM): 6.5 ± 0.9 µM |
| Nc1ccc(C(=O)/C=C/c2cccc(F)c2)cc1 [Chalcone 3u] |  | 7.2 ± 0.6 µM | 9.9 ± 0.3 µM | 8.8 ± 1.4 µM | 15.6 µM | < 10 µM | IC50 [1, 10]: 8.6 µM |
| COc1ccc(OC)c(/C=C/C(=O)c2ccc(NC(C)=O)cc2)c1 [Chalcone 3d] | active | 5.5 ± 1.1 µM | 6.9 ± 1.6 µM | 7.9 ± 1.7 µM | 16.8 µM | < 10 µM |  |
| Nc1ccc(C(=O)/C=C/c2ccc(O)cc2)cc1 [Chalcone 3i] | not active at concentrations tested |  |  |  |  |  | IC50 (Glio9; Homo sapiens): > 10 µM; IC50 (Glio3 [2]; Homo sapiens): > 10 µM; IC50 (Glio38 [3]; Homo sapiens): > 10 µM |
| Nc1ccc(C(=O)/C=C/c2cccc(Cl)c2)cc1 [Chalcone 3v] |  | 5.8 ± 0.9 µM | 9.1 ± 0.6 µM | 6.7 ± 0.6 µM | 25.7 µM | < 10 µM | IC50 [1, 10]: 7.2 µM |
| COc1cccc(/C=C/C(=O)c2ccc(O)cc2)c1OC [Chalcone 4a] |  | 14.2 ± 3 µM | 11.4 ± 0.9 µM | 9.1 ± 0.7 µM | > 10 µM |  |  |
| CN(C)c1ccc(/C=C/C(=O)c2ccc(N)cc2)cc1 [Chalcone 3n] | inactive at the concentrations tested | > 10 µM | > 10 µM | > 10 µM |  |  |  |
| COc1cc(/C=C/C(=O)c2ccc(NC(C)=O)cc2)cc(OC)c1 [Chalcone 3g] | active | 4.8 ± 0.6 µM | 6.2 ± 1.3 µM | 5.4 ± 0.6 µM | 7.4 µM | < 10 µM |  |
| Nc1ccc(C(=O)/C=C/c2ccc(Cl)cc2)cc1 [Chalcone 3w] |  | 7 ± 0.3 µM | 12.3 ± 1.1 µM | 7.9 ± 0.6 µM | 80.1 µM | < 15 µM | IC50 [1, 10]: 9.1 µM |
| COCOc1ccc(C=CC(=O)c2ccc(N)cc2)cc1OC [Chalcone 3h] | not active at concentrations tested | > 10 µM | > 10 µM | > 10 µM |  |  |  |
| transferrin: transferrin alone, targeting ligand used in the conjugates |  |  |  |  |  |  | neurosphere formation (Glio3 [5]): neither c-dots or transferrin alone significantly reduced neurosphere formation; neurosphere formation (Glio38 [6]): neither c-dots or transferrin alone significantly reduced neurosphere formation |
| Nc1ccc(C(=O)/C=C/c2cccc(Br)c2)cc1 [Chalcone 3x] |  | 7 ± 0.5 µM | 9.3 ± 1.1 µM | 5.9 ± 0.8 µM | 28.1 µM | < 10 µM | IC50 [1, 10]: 7.4 µM |
| Nc1ccc(C(=O)/C=C/c2c[nH]c3ccccc23)cc1 [Chalcone 3t] |  | > 10 µM | > 10 µM | > 10 µM |  |  |  |
| COc1cc(/C=C/C(=O)c2ccc(O)cc2)cc(OC)c1 [Chalcone 4b] |  | 7 ± 0.4 µM | 6.7 ± 0.2 µM | 6.4 ± 0.4 µM | 17.1 µM | < 10 µM |  |
